Tested on: HOP-62 multicell spheroids with HUVEC/MSC, viability
Test: Anticancer human tumor HOP-62 cell line growth inhibition [KRAS2];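 note: viability read after a week of compound exposure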;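 for viability, T/C: 100% = DMSO vehicle-treated spheroids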
Conditions: for IC50: curve of first compound; for viability, T/C: stronger effect = lower value
In short: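 KRAS-mutant tumor cells were grown as spheroids with HUVEC endothelial cells and human MSCs as stroma. Targeted agents were tested alone and with KRAS pathway inhibitors. Doses started at or near clinical Cmax, or 10 microM, descending half-log.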

[1] = second compound 0.0316 µM, first compound 0.0316 µM
[2] = second compound 0.0316 µM, first compound 0.1 µM
[3] = second compound 0.0316 µM, first compound 0.316 µM
[4] = second compound 0.0316 µM, first compound 1 µM
[5] = second compound 0.0316 µM, first compound 3.16 µM
[6] = second compound 0.1 µM, first compound 0.01 µM
[7] = second compound 0.1 µM, first compound 0.0316 µM
[8] = second compound 0.1 µM, first compound 0.1 µM
[9] = second compound 0.1 µM, first compound 0.316 µM
[10] = second compound 0.1 µM, first compound 1 µM
[11] = second compound 0.1 µM, first compound 3.16 µM
[12] = second compound 0.316 µM, first compound 0.01 µM
[13] = second compound 0.316 µM, first compound 0.0316 µM
[14] = second compound 0.316 µM, first compound 0.1 µM
[15] = second compound 0.316 µM, first compound 0.316 µM
[16] = second compound 0.316 µM, first compound 1 µM
[17] = second compound 0.316 µM, first compound 3.16 µM
[18] = second compound 1 µM, first compound 0.01 µM
[19] = second compound 1 µM, first compound 0.0316 µM
[20] = second compound 1 µM, first compound 0.1 µM
[21] = second compound 1 µM, first compound 0.316 µM
[22] = second compound 1 µM, first compound 1 µM
[23] = second compound 1 µM, first compound 3.16 µM
[24] = second compound 3.16 µM, first compound 0.01 µM
[25] = second compound 3.16 µM, first compound 0.0316 µM
[26] = second compound 3.16 µM, first compound 0.1 µM
[27] = second compound 3.16 µM, first compound 0.316 µM
[28] = second compound 3.16 µM, first compound 1 µM
[29] = second compound 3.16 µM, first compound 3.16 µM
[30] = second compound 0.1 µM, first compound 10 µM
[31] = second compound 0.316 µM, first compound 10 µM
[32] = second compound 1 µM, first compound 10 µM
[33] = second compound 3.16 µM, first compound 10 µM
[34] = second compound 10 µM, first compound 0.0316 µM
[35] = second compound 10 µM, first compound 0.1 µM
[36] = second compound 10 µM, first compound 0.316 µM
[37] = second compound 10 µM, first compound 1 µM

| Compound | IC50 (second compound 0.1 µM) [nM] | IC50 (second compound 0.316 µM) [nM] | IC50 (second compound 1 µM) [nM] | IC50 (second compound 3.16 µM) [nM] | viability, T/C [7] [%] | viability, T/C [8] [%] | viability, T/C [9] [%] | viability, T/C [10] [%] | viability, T/C [13] [%] | viability, T/C [14] [%] | viability, T/C [15] [%] | viability, T/C [16] [%] | viability, T/C [19] [%] | viability, T/C [20] [%] | viability, T/C [21] [%] | viability, T/C [22] [%] | viability, T/C [25] [%] | viability, T/C [26] [%] | viability, T/C [27] [%] | viability, T/C [28] [%] | other results |
| --- | --- | --- | --- | --- | --- | --- | --- | --- | --- | --- | --- | --- | --- | --- | --- | --- | --- | --- | --- | --- | --- |
| CC1COCCN1c1cc(-c2ccnn2C)c2ccnc(-c3ccn[nH]3)c2n1 (stereo not given) + C=CC(=O)N1CCN(c2nc(OCC3CCCN3C)nc3c2CCN(c2cccc4cccc(C)c24)C3)CC1CC#N | 30.9 | 12.2 | < 10 | < 10 | 49.3 | 22.7 | 12 | 11.7 | 30.3 | 19.4 | 10.9 | 9.7 | 18.6 | 9.29 | 8.75 | 8.51 | 1.59 | 0.93 | 0.21 | 0.17 | IC50 (second compound 0.0316 µM): 39.9 nM; viability, T/C (second compound 0.0316 µM, first compound 0.01 µM): 94.9%; viability, T/C [1]: 55.4%; viability, T/C [2]: 28.6%; viability, T/C [3]: 17.6%; viability, T/C [4]: 14%; viability, T/C [5]: 12.8%; viability, T/C [6]: 79.4%; viability, T/C [11]: 10%; viability, T/C [12]: 54%; viability, T/C [17]: 7.82%; viability, T/C [18]: 27.2%; viability, T/C [23]: 7.02%; viability, T/C [24]: 2.88%; viability, T/C [29]: 3.92% |
| O=C(c1cc(Cc2n[nH]c(=O)c3ccccc23)ccc1F)N1CCN(C(=O)C2CC2)CC1 + C=CC(=O)N1CCN(c2nc(=O)n(-c3c(C)ccnc3C(C)C)c3nc(-c4c(O)cccc4F)c(F)cc23)C(C)C1 | 39.7 | 271 | 708 | 249 | 50.3 | 47.2 | 37.5 | 35.6 | 64 | 61.2 | 45.5 | 40.4 | 59.3 | 54.7 | 53.2 | 49.8 | 58.9 | 50.5 | 48.3 | 47.8 | IC50 (second compound 10 µM): < 31.6 nM; viability, T/C [11]: 27.7%; viability, T/C [30]: 27.4%; viability, T/C [17]: 37.6%; viability, T/C [31]: 29.3%; viability, T/C [23]: 40.8%; viability, T/C [32]: 31.6%; viability, T/C [29]: 42.1%; viability, T/C [33]: 37.4%; viability, T/C [34]: 52%; viability, T/C [35]: 46.1%; viability, T/C [36]: 48.8%; viability, T/C [37]: 46.7%; viability, T/C (second compound 10 µM, first compound 3.16 µM): 43.2%; viability, T/C (second compound 10 µM, first compound 10 µM): 36.8% |
| COC(=O)c1ccc2c(C(=Nc3ccc(N(C)C(=O)CN4CCN(C)CC4)cc3)c3ccccc3)c(O)[nH]c2c1 + C=CC(=O)N1CCN(c2nc(OCC3CCCN3C)nc3c2CCN(c2cccc4cccc(C)c24)C3)CC1CC#N | < 31.6 | < 31.6 | < 31.6 | < 31.6 | 30 | 32.6 | 21.7 | 23 | 25.7 | 21.7 | 24.1 | 21.7 | 26.5 | 19.2 | 19.7 | 17.8 | 6.95 | 3.11 | 20.2 | 0.09 | IC50 (second compound 0.0316 µM): < 31.6 nM; viability, T/C [1]: 42.5%; viability, T/C [2]: 36.9%; viability, T/C [3]: 28.2%; viability, T/C [4]: 26.6%; viability, T/C [5]: 25.1%; viability, T/C (second compound 0.0316 µM, first compound 10 µM): 7.5%; viability, T/C [11]: 20.5%; viability, T/C [30]: 8.85%; viability, T/C [17]: 20%; viability, T/C [31]: 1.11%; viability, T/C [23]: 8.02%; viability, T/C [32]: 0.28%; viability, T/C [29]: 0.09%; viability, T/C [33]: 0.95% |
| CCN1CCN(Cc2ccc(Nc3ncc(F)c(-c4cc(F)c5nc(C)n(C(C)C)c5c4)n3)nc2)CC1 + CC1OCC2(CCN(c3cnc(Sc4ccnc(N)c4Cl)c(N)n3)CC2)C1N | > 1000 | 370 | 67.5 | < 3.16 | 87.1 | 83.7 | 75.4 | 50.8 | 73.1 | 73 | 49 | 37.2 | 53 | 42.1 | 42.7 | 25.9 | 33.5 | 27 | 25.7 | 20.1 | IC50 (second compound 10 µM): < 3.16 nM; viability, T/C (second compound 0.1 µM, first compound 0.00316 µM): 104%; viability, T/C [6]: 93.8%; viability, T/C (second compound 0.316 µM, first compound 0.00316 µM): 96.8%; viability, T/C [12]: 76.6%; viability, T/C (second compound 1 µM, first compound 0.00316 µM): 65.3%; viability, T/C [18]: 73.2%; viability, T/C (second compound 3.16 µM, first compound 0.00316 µM): 33.7%; viability, T/C [24]: 41.3%; viability, T/C (second compound 10 µM, first compound 0.00316 µM): 32.6%; viability, T/C (second compound 10 µM, first compound 0.01 µM): 27.4%; viability, T/C [34]: 23.4%; viability, T/C [35]: 21.5%; viability, T/C [36]: 23.9%; viability, T/C [37]: 13.9% |
